Data as given in patent US12258328B2, “6-membered heteroaryl-containing aminopyridine compounds as EGFR inhibitors” (YUHAN CORPORATION, priority 2021, dated 2025).
Where two headings read alike, the source gives them in different places.

What was measured:
EGFR del19/T790M/C797S = EGFR del19/T790M/C797S (Homo sapiens, UniProt P00533, C797S/DEL746-750/T790M); assay: Biochemical EGFR kinase assay (Lance Ultra TR-FRET), triple mutant del19/T790M/C797S
Experimental: (§1) Biochemical EGFR kinase assays were conducted using Lance Ultra time-resolved fluorescence resonance energy transfer (TR-FRET) technology from Perkin-Elmer. Compounds of the invention were initially diluted to 20 mM in 100% DMSO for storage and made into kinase buffer solution to create a compound concentration ranging from 0.003 μM and 10 μM.
(§2) Each kinase reactions were incubated at room temperature for 1 hour and then stopped by the addition of 4 μL of stop solution (10 mM EDTA). The specific Europium-labeled-anti-phosphopeptide antibody (PerkinElmer, AD0069) diluted in LANCE detection buffer was then added to a final concentration of 2 nM. After 60 minutes incubation at room temperature the LANCE signal was measured on an EnVision Multilabel Reader (Perkin-Elmer). Excitation wavelength was set at 320 nm and emission monitored at 615 nm (donor) and 665 nm (acceptor). The IC50 values were determined using GraphPad prism software (GraphPad Software, Inc., San Diego, CA, USA).

EGFR L858R/T790M/C797S = EGFR L858R/T790M/C797S (Homo sapiens, UniProt P00533, C797S/L858R/T790M); assay: Biochemical EGFR kinase assay (Lance Ultra TR-FRET), triple mutant L858R/T790M/C797S
EGFR L858R/T790M/C797S, sequence (P00533 25-1210 T790M/C797S/L858R): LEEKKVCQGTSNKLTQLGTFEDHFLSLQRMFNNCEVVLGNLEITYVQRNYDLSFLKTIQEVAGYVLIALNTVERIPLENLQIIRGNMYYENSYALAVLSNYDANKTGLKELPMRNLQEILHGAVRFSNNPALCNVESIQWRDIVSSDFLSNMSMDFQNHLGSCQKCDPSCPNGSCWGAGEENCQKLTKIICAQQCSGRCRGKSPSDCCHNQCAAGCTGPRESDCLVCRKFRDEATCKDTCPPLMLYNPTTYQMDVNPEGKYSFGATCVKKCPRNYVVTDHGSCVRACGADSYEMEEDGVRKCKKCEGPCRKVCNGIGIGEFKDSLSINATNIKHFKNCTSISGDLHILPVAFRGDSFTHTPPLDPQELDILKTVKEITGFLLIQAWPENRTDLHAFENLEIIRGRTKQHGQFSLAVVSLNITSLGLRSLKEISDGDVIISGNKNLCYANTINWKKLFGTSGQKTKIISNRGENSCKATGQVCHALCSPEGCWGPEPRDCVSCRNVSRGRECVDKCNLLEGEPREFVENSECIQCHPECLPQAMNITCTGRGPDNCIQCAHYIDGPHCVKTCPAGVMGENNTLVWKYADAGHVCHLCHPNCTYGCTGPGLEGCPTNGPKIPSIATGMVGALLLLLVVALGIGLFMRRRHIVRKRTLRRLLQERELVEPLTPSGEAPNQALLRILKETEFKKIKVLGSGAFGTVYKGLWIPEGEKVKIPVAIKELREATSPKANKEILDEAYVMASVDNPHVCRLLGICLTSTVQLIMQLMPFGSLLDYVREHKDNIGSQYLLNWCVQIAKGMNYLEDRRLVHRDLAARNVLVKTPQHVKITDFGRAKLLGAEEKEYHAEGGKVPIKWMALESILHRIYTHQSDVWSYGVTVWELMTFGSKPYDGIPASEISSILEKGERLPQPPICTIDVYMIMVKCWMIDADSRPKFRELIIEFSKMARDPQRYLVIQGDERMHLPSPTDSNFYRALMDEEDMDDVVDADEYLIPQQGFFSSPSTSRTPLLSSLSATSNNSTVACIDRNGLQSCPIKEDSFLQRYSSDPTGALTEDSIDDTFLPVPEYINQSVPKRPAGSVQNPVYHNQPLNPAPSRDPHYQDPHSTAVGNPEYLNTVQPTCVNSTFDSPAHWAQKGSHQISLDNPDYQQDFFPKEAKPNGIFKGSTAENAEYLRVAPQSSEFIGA
Experimental: as §1, §2

EGFR del19/C797S = EGFR del19/C797S (Homo sapiens, UniProt P00533, C797S/DEL746-750); assay: Biochemical EGFR kinase assay (Lance Ultra TR-FRET), double mutant del19/C797S
EGFR del19/C797S, sequence (P00533 with tags, fused parts or gaps DEL746-750/C797S): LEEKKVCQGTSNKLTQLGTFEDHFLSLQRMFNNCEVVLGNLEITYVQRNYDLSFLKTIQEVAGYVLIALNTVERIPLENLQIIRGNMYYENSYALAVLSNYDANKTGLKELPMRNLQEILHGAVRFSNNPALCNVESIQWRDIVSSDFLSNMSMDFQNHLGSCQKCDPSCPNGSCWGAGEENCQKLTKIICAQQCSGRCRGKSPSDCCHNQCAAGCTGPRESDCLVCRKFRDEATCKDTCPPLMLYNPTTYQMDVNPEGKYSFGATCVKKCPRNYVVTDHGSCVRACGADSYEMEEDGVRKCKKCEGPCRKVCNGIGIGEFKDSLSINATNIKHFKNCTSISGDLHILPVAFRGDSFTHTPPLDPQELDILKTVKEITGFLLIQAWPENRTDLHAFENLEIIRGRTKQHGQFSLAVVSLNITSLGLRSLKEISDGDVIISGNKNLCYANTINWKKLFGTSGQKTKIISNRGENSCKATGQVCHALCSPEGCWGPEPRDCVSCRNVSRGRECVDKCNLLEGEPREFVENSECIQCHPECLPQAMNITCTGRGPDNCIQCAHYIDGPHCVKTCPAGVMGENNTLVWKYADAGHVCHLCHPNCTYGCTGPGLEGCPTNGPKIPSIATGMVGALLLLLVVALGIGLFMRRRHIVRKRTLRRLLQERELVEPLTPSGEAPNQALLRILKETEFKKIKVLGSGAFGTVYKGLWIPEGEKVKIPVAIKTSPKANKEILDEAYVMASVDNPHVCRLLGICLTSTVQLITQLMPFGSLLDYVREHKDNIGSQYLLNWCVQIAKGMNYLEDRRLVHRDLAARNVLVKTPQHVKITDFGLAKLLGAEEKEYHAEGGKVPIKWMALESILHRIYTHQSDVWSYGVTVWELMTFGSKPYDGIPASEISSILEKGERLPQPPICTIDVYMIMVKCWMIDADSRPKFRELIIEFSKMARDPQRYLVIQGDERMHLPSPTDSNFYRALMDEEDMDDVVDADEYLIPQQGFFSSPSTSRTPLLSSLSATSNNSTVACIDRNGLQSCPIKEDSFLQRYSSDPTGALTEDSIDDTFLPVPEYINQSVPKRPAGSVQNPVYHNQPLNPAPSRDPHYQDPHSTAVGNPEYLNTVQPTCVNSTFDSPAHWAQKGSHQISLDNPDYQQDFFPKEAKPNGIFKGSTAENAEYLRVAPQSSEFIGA
Experimental: as §1, §2

EGFR L858R/C797S = EGFR L858R/C797S (Homo sapiens, UniProt P00533, C797S/L858R); assay: Biochemical EGFR kinase assay (Lance Ultra TR-FRET), double mutant L858R/C797S
EGFR L858R/C797S, sequence (P00533 25-1210 C797S/L858R): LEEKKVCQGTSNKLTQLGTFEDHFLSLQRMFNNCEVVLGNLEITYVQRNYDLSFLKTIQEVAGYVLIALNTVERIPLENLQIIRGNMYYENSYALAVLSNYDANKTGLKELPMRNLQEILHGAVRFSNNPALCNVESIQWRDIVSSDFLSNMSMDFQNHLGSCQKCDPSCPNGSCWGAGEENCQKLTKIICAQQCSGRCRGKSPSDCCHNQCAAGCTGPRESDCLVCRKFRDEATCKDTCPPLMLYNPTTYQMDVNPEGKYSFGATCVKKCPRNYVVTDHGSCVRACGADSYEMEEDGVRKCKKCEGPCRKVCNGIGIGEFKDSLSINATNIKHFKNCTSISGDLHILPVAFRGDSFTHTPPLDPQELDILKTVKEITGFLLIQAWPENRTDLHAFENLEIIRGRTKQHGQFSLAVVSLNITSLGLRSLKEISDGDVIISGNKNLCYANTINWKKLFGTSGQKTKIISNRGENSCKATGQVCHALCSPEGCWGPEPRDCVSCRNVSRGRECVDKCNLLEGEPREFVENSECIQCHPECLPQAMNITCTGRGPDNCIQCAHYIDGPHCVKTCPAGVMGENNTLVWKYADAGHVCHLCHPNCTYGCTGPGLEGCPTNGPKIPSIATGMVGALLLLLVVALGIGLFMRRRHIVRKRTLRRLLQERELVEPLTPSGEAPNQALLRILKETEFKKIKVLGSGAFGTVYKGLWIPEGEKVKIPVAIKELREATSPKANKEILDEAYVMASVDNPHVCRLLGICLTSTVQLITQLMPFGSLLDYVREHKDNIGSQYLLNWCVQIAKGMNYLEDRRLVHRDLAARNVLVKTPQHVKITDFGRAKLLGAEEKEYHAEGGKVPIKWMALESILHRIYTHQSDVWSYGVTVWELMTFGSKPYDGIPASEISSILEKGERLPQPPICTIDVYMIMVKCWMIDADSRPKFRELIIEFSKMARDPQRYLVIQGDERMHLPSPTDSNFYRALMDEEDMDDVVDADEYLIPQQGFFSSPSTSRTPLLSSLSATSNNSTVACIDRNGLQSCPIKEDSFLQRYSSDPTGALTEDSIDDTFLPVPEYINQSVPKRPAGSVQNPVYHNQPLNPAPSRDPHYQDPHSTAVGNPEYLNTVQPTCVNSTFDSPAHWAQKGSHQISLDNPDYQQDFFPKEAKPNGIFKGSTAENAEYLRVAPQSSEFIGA
Experimental: as §1, §2

EGFR wildtype = EGFR wildtype (Homo sapiens, UniProt P00533); assay: Biochemical EGFR kinase assay (Lance Ultra TR-FRET), wildtype
EGFR wildtype, sequence (P00533 25-1210): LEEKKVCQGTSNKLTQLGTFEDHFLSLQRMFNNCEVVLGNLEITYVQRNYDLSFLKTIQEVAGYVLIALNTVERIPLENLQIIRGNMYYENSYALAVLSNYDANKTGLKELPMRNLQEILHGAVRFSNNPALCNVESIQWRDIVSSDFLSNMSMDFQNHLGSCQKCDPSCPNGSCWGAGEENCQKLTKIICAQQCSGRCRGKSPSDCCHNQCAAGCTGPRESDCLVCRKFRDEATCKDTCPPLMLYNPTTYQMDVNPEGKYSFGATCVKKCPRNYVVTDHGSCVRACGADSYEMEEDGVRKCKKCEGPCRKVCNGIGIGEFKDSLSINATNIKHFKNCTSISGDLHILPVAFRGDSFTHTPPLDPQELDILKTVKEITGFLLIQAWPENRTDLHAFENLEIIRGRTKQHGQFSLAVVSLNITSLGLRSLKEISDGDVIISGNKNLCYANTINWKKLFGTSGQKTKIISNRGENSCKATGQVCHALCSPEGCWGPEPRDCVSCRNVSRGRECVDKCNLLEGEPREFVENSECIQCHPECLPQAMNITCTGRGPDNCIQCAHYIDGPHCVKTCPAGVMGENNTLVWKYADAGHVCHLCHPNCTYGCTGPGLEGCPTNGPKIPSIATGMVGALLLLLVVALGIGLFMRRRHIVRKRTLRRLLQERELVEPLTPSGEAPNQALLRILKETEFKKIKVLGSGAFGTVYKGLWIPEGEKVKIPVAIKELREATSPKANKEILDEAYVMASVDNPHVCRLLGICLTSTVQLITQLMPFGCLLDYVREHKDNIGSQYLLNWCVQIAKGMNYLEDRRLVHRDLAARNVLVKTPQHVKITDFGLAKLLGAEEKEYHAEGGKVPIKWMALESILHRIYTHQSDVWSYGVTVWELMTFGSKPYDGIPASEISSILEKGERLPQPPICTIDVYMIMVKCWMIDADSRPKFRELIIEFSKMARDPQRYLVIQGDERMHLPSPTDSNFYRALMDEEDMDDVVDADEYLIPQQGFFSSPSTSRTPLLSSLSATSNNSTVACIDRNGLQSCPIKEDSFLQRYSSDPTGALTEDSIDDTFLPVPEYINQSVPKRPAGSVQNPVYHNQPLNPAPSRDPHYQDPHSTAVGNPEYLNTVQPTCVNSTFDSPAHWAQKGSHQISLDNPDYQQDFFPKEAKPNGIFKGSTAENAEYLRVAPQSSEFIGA
Experimental: as §1, §2

[1] = IC50 del19/T790M/C797S (nM) 100 μM ATP, 100 μM ATP
[2] = Km ATP, read-out: IC50 del19/T790M/C797S (nM) Km ATP
[3] = IC50 L858R/T790M/C797S (nM) 100 μM ATP, 100 μM ATP
[4] = Km ATP, read-out: IC50 L858R/T790M/C797S (nM) Km ATP
[5] = IC50 del19/C797S (nM) 100 μM ATP, 100 μM ATP
[6] = Km ATP, read-out: IC50 del19/C797S (nM) Km ATP
[7] = IC50 L858R/C797S (nM) 100 μM ATP, 100 μM ATP
[8] = Km ATP, read-out: IC50 L858R/C797S (nM) Km ATP
[9] = IC50 WT (nM) 100 μM ATP, 100 μM ATP
[10] = Km ATP, read-out: IC50 WT (nM) Km ATP

Row | SMILES | IC50 (EGFR del19/T790M/C797S; [1]) [nM] | IC50 (EGFR del19/T790M/C797S; [2]) [nM] | IC50 (EGFR L858R/T790M/C797S; [3]) [nM] | IC50 (EGFR L858R/T790M/C797S; [4]) [nM] | IC50 (EGFR del19/C797S; [5]) [nM] | IC50 (EGFR del19/C797S; [6]) [nM] | IC50 (EGFR L858R/C797S; [7]) [nM] | IC50 (EGFR L858R/C797S; [8]) [nM] | IC50 (EGFR wildtype; [9]) [nM] | IC50 (EGFR wildtype; [10]) [nM]
1 | C[C@]1(O)CC[C@@H](Nc2cc(Nc3ccnc(-c4cnn(S(=O)(=O)C5CC5)c4)n3)ncc2-c2ccc(CN3CCC(F)(F)CC3)cn2)CC1 [Example 33, (1s,4s)-4-((6′-((2-(1-(Cyclopropylsulfonyl)-1H-pyrazol-4-yl)pyrimidin-4-yl)amino)-5-((4,4-difluoropiperidin-1-yl)methyl)-[2,3′-bipyridin]-4′-yl)amino)-1-methylcyclohexan-1-ol] | 3.9 | 2.6 | 3.1 | 1.7 | 1.3 | 2.1 | 29.3 | 1.7 | 813 | 7.9
2 | CC(C)N1CCN(Cc2ccc(-c3cnc(Nc4ccnc(-c5cnn(S(=O)(=O)C6CC6)c5)n4)cc3N[C@H]3CC[C@@](C)(O)CC3)nc2)CC1 [Example 34, (1s,4s)-4-((6′-((2-(1-(Cyclopropylsulfonyl)-1H-pyrazol-4-yl)pyrimidin-4-yl)amino)-5-((4-isopropylpiperazin-1-yl)methyl)-[2,3′-bipyridin]-4′-yl)amino)-1-methylcyclohexan-1-ol] | 0.6 | 0.6 | 0.3 | 0.1 | 0.4 | 0.2 | 0.2 | 0.1 | 61.1 | 0.5
3 | C[C@]1(O)CC[C@@H](Nc2cc(Nc3ccnc(-c4cnn(S(=O)(=O)C5CC5)c4)n3)ncc2-c2ccccn2)CC1 [Example 35, (1s,4s)-4-((6′-((2-(1-(Cyclopropylsulfonyl)-1H-pyrazol-4-yl)pyrimidin-4-yl)amino)-[2,3′-bipyridin]-4′-yl)amino)-1-methylcyclohexan-1-ol] | 0.3 | 0.6 | 0.3 | 0.2 | 0.2 | 0.3 |  | 0.3 | 811 | 
4 | O=S(=O)(C1CC1)n1cc(-c2nccc(Nc3cc(N[C@H]4CC[C@@H](NCCF)CC4)c(-c4ccccn4)cn3)n2)cn1 [Example 36, N^6′-(2-(1-(Cyclopropylsulfonyl)-1H-pyrazol-4-yl)pyrimidin-4-yl)-N^4′-((1s,4s)-4-((2-fluoroethyl)amino)cyclohexyl)-[2,3′-bipyridine]-4′,6′-diamine] | 0.2 | 0.1 | 0.1 | 0.1 | 0.9 | 0.5 | 15.7 | 1 | 3080 | 5.8
5 | O=S(=O)(C1CC1)n1cc(-c2nccc(Nc3cc(N[C@H]4CC[C@](O)(CO)CC4)c(-c4ccccn4)cn3)n2)cn1 [Example 37, (1s,4s)-4-((6′-((2-(1-(Cyclopropylsulfonyl)-1H-pyrazol-4-yl)pyrimidin-4-yl)amino)-[2,3′-bipyridin]-4′-yl)amino)-1-(hydroxymethyl)cyclohexan-1-ol] | 0.2 | 0.2 | 0.3 | 0.1 | 1.1 | 0.7 | 21.3 | 0.7 | > 10000 | 6.6
6 | C[C@]1(O)CC[C@@H](Nc2cc(Nc3ccnc(-c4cnn(S(=O)(=O)C5CC5)c4)n3)ncc2-c2ccc(N3CCOCC3)cn2)CC1 [Example 38, (1s,4s)-4-((6′-((2-(1-(Cyclopropylsulfonyl)-1H-pyrazol-4-yl)pyrimidin-4-yl)amino)-5-morpholino-[2,3′-bipyridin]-4′-yl)amino)-1-methylcyclohexan-1-ol] | 0.4 |  | 0.7 | 0.2 | 0.6 | 0.3 | 4.3 | 0.9 | 1430 | 
7 | CN(C)c1cnc(-c2cnc(Nc3ccnc(-c4cnn(S(=O)(=O)C5CC5)c4)n3)cc2N[C@H]2CC[C@@](C)(O)CC2)nc1 [Example 39, (1s,4s)-4-((2-((2-(1-(Cyclopropylsulfonyl)-1H-pyrazol-4-yl)pyrimidin-4-yl)amino)-5-(5-(dimethylamino)pyrimidin-2-yl)pyridin-4-yl)amino)-1-methylcyclohexan-1-ol] | 2.1 | 1 | 0.7 | 0.4 |  | 2.5 | 74.8 | 8.7 | > 10000 | 26

Results, then the molecule that gave them:

Row | IC50 (EGFR del19/T790M/C797S; [1]) [nM] | IC50 (EGFR del19/T790M/C797S; [2]) [nM] | IC50 (EGFR L858R/T790M/C797S; [3]) [nM] | IC50 (EGFR L858R/T790M/C797S; [4]) [nM] | IC50 (EGFR del19/C797S; [5]) [nM] | IC50 (EGFR del19/C797S; [6]) [nM] | IC50 (EGFR L858R/C797S; [7]) [nM] | IC50 (EGFR L858R/C797S; [8]) [nM] | IC50 (EGFR wildtype; [9]) [nM] | IC50 (EGFR wildtype; [10]) [nM] | SMILES
8 | 2.1 | 0.7 | 1.7 | 0.5 | 3.2 | 2.3 | 7.7 | 1.7 | 1440 | 5 | CN(C)c1ccc(-c2cnc(Nc3ccnc(-c4cnn(S(=O)(=O)C5CC5)c4)n3)cc2N[C@H]2CC[C@@](C)(O)CC2)nc1 [Example 40, (1s,4s)-4-((6′-((2-(1-(Cyclopropylsulfonyl)-1H-pyrazol-4-yl)pyrimidin-4-yl)amino)-5-(dimethylamino)-[2,3′-bipyridin]-4′-yl)amino)-1-methylcyclohexan-1-ol]
9 | 0.8 | 0.3 | 0.9 | 0.2 | 5.1 | 4.5 | 523 | 4 | > 10000 | 43.6 | CN(C)c1ccnc(-c2cnc(Nc3ccnc(-c4cnn(S(=O)(=O)C5CC5)c4)n3)cc2N[C@H]2CC[C@@](C)(O)CC2)n1 [Example 41, (1s,4s)-4-((2-((2-(1-(Cyclopropylsulfonyl)-1H-pyrazol-4-yl)pyrimidin-4-yl)amino)-5-(4-(dimethylamino)pyrimidin-2-yl)pyridin-4-yl)amino)-1-methylcyclohexan-1-ol]
10 | 0.1 | 0.1 | 0.1 | 0.03 | 0.2 | 0.3 | 2.3 | 0.4 | 1360 |  | C[C@]1(O)CC[C@@H](Nc2cc(Nc3ccnc(-c4cnn(S(=O)(=O)C5CC5)c4)n3)ncc2-c2cccnn2)CC1 [Example 42, (1s,4s)-4-((2-((2-(1-(Cyclopropylsulfonyl)-1H-pyrazol-4-yl)pyrimidin-4-yl)amino)-5-(pyridazin-3-yl)pyridin-4-yl)amino)-1-methylcyclohexan-1-ol]
11 | 2.5 | 0.1 | 2.7 | 0.1 | 0.5 | 0.4 | 1.6 | 0.6 | 1560 | 2 | C[C@]1(O)CC[C@@H](Nc2cc(Nc3ccnc(-c4cnn(S(=O)(=O)C5CC5)c4)n3)ncc2-c2ccc(N3CCOCC3)nn2)CC1 [Example 43, (1s,4s)-4-((2-((2-(1-(Cyclopropylsulfonyl)-1H-pyrazol-4-yl)pyrimidin-4-yl)amino)-5-(6-morpholinopyridazin-3-yl)pyridin-4-yl)amino)-1-methylcyclohexan-1-ol]
12 | 0.6 |  | 0.6 |  | 0.8 |  | 7.1 |  | > 10000 |  | C[C@]1(O)CC[C@@H](Nc2cc(Nc3ccnc(-c4cnn(S(=O)(=O)C5CC5)c4)n3)ncc2-c2cnc(N3CCOCC3)cn2)CC1 [Example 44, (1s,4s)-4-((2-((2-(1-(Cyclopropylsulfonyl)-1H-pyrazol-4-yl)pyrimidin-4-yl)amino)-5-(5-morpholinopyrazin-2-yl)pyridin-4-yl)amino)-1-methylcyclohexan-1-ol]
13 | 1.7 |  | 2.6 |  | 1.7 |  | 4.2 |  | 602 |  | CC(C)(O)[C@H]1CC[C@@H](Nc2cc(Nc3ccnc(-c4cnn(S(=O)(=O)C5CC5)c4)n3)ncc2-c2ccc(N3CCOCC3)cn2)CC1 [Example 45, 2-((1s,4s)-4-((6′-((2-(1-(Cyclopropylsulfonyl)-1H-pyrazol-4-yl)pyrimidin-4-yl)amino)-5-morpholino-[2,3′-bipyridin]-4′-yl)amino)cyclohexyl)propan-2-ol]
14 | 0.3 | 0.2 | 0.2 | 0.1 | 0.4 | 0.2 | 0.9 | 0.2 | > 10000 | 0.9 | CN1CCN(c2ccc(-c3cnc(Nc4ccnc(-c5cnn(S(=O)(=O)C6CC6)c5)n4)cc3N[C@H]3CC[C@@](C)(O)CC3)nn2)CC1 [Example 46, (1s,4s)-4-((2-((2-(1-(Cyclopropylsulfonyl)-1H-pyrazol-4-yl)pyrimidin-4-yl)amino)-5-(6-(4-methylpiperazin-1-yl)pyridazin-3-yl)pyridin-4-yl)amino)-1-methylcyclohexan-1-ol]
